The record followed here is PubChem BioAssay AID248 (DTP/NCI, 2004).

Values joined by “and” are separate entries in the source; they are usually repeats but may differ in a detail not shown here. Identical values can stand only once. Inconclusive results and toxic doses are left out.

The experiment concerns L1210 leukemia ip in BDF1 mice, survival T/C. The experiment is described as follows: NCI In Vivo Anticancer Drug Screen. Data for tumor model L1210 Leukemia (intraperitoneal) in B6D2F1 (BDF1) mice. The conditions noted are these: endpoint: mean survival time, higher = longer survival. In outline: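 Read-out is survival time, reported as the treated-group measurement over the vehicle-control measurement.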

[1] abbreviates: dose: 100.0 mg/kg/injection, schedule: Q04DX003 (ip), vehicle: saline.
The mark [2] stands for this setting: dose: 200.0 mg/kg/injection, schedule: Q04DX003 (ip), vehicle: saline.
The mark [3] stands for this setting: dose: 400.0 mg/kg/injection, schedule: Q04DX003 (ip), vehicle: saline.
[4] abbreviates: dose: 100.0 mg/kg/injection, schedule: Q01DX001 (ip), vehicle: saline.
[5] abbreviates: dose: 200.0 mg/kg/injection, schedule: Q01DX001 (ip), vehicle: saline.
Setting [6] is: dose: 400.0 mg/kg/injection, schedule: Q01DX001 (ip), vehicle: saline.
Where [7] appears, read: dose: 100.0 mg/kg/injection, schedule: Q04DX003 (ip), vehicle: Klucel (hydroxypropylcellulose) (HPC).
Setting [8] is: dose: 200.0 mg/kg/injection, schedule: Q04DX003 (ip), vehicle: Klucel (hydroxypropylcellulose) (HPC).
The mark [9] stands for this setting: dose: 400.0 mg/kg/injection, schedule: Q04DX003 (ip), vehicle: Klucel (hydroxypropylcellulose) (HPC).

In the case of `CCOC(=O)/C=C(\C)N(C(=O)N(CCCl)N=O)c1ccccc1`, the T/C is 118 % of control (dose: 0.12 mg/kg/injection, schedule: Q01DX009 (ip), vehicle: Klucel (hydroxypropylcellulose) (HPC)); 159 % of control (dose: 0.5 mg/kg/injection, schedule: Q01DX009 (ip), vehicle: Klucel (hydroxypropylcellulose) (HPC)); 103 % of control (dose: 1.0 mg/kg/injection, schedule: Q01DX001 (ip), vehicle: carboxymethylcellulose (CMC)); 232 % of control (dose: 1.0 mg/kg/injection, schedule: Q01DX009 (ip), vehicle: Klucel (hydroxypropylcellulose) (HPC)); 103 % of control and 119 % of control (dose: 2.0 mg/kg/injection, schedule: Q01DX001 (ip), vehicle: carboxymethylcellulose (CMC)); 109 % of control (dose: 4.0 mg/kg/injection, schedule: Q01DX001 (ip), vehicle: carboxymethylcellulose (CMC)). The T/C by setting is: (dose: 6.0 mg/kg/injection, schedule: Q01DX009 (ip), vehicle: carboxymethylcellulose (CMC)) 161 % of control; (dose: 8.0 mg/kg/injection, schedule: Q01DX001 (ip), vehicle: carboxymethylcellulose (CMC)) 104 % of control; (dose: 8.8 mg/kg/injection, schedule: Q01DX009 (ip), vehicle: carboxymethylcellulose (CMC)) 163 % of control; (dose: 13.0 mg/kg/injection, schedule: Q01DX009 (ip), vehicle: Klucel (hydroxypropylcellulose) (HPC)) 120 % of control; (dose: 13.3 mg/kg/injection, schedule: Q01DX009 (ip), vehicle: carboxymethylcellulose (CMC)) 121 % of control; (dose: 15.0 mg/kg/injection, schedule: Q01DX001 (ip), vehicle: carboxymethylcellulose (CMC)) 153 % of control. The T/C (dose: 20.0 mg/kg/injection, schedule: Q01DX009 (ip), vehicle: carboxymethylcellulose (CMC)) was 110 % of control; the T/C (dose: 30.0 mg/kg/injection, schedule: Q01DX001 (ip), vehicle: carboxymethylcellulose (CMC)) was 104 % of control and 231 % of control and 86 % of control; the T/C (dose: 30.0 mg/kg/injection, schedule: Q01DX009 (ip), vehicle: Klucel (hydroxypropylcellulose) (HPC)) was 90 % of control; the T/C (dose: 30.0 mg/kg/injection, schedule: Q01DX009 (ip), vehicle: carboxymethylcellulose (CMC)) was 100 % of control; the T/C (dose: 45.0 mg/kg/injection, schedule: Q01DX001 (ip), vehicle: carboxymethylcellulose (CMC)) was 155 % of control; the T/C (dose: 60.0 mg/kg/injection, schedule: Q01DX001 (ip), vehicle: carboxymethylcellulose (CMC)) is 109 % of control and 204 % of control. For the same compound, under “dose: 120.0 mg/kg/injection, schedule: Q01DX001 (ip), vehicle: carboxymethylcellulose (CMC)”, the T/C was 114 % of control.

In the case of `O=C(O)c1ccc(NC(=S)Nc2ccc(C(=O)O)cc2)cc1`, the T/C is 93 % of control (dose: 100.0 mg/kg/injection, schedule: Q01DX009 (ip), vehicle: saline with Tween-80); 94 % of control under setting [1]; 112 % of control (dose: 200.0 mg/kg/injection, schedule: Q01DX009 (ip), vehicle: saline with Tween-80); 100 % of control under setting [2]; 93 % of control (dose: 400.0 mg/kg/injection, schedule: Q01DX009 (ip), vehicle: saline with Tween-80); 104 % of control under setting [3].

Consider `Cn1nnnc1CCN(N)CCN(N)CCc1nnnn1C`, for which the T/C is, setting by setting: under setting [4], 103 % of control; under setting [5], 92 % of control; under setting [6], 95 % of control.

Regarding `OCC1OC(n2c(N3CCCCC3)nc3ccccc32)C(O)C1O` (stereo unspecified), the T/C was 102 % of control under setting [4], 105 % of control under setting [5] and 105 % of control under setting [6].

Consider `CCCCCCCCCCCCCCCCOc1ccc(S(=O)(=O)N2CCOCC2)cc1[N+](=O)[O-]`, for which the T/C is 103 % of control (dose: 75.0 mg/kg/injection, schedule: Q04DX003 (ip), vehicle: saline); 97 % of control (dose: 100.0 mg/kg/injection, schedule: Q01DX001 (ip), vehicle: Klucel (hydroxypropylcellulose) (HPC)); 93 % of control (dose: 150.0 mg/kg/injection, schedule: Q04DX003 (ip), vehicle: saline); 104 % of control (dose: 200.0 mg/kg/injection, schedule: Q01DX001 (ip), vehicle: Klucel (hydroxypropylcellulose) (HPC)); 95 % of control (dose: 300.0 mg/kg/injection, schedule: Q04DX003 (ip), vehicle: saline); 104 % of control (dose: 400.0 mg/kg/injection, schedule: Q01DX001 (ip), vehicle: Klucel (hydroxypropylcellulose) (HPC)).

`CC(=O)c1cc(C)c(O)c(C)c1`: the T/C was 107 % of control (dose: 50.0 mg/kg/injection, schedule: Q01DX001 (ip), vehicle: carboxymethylcellulose (CMC)); 89 % of control (dose: 100.0 mg/kg/injection, schedule: Q01DX001 (ip), vehicle: carboxymethylcellulose (CMC)); 94 % of control (dose: 200.0 mg/kg/injection, schedule: Q01DX001 (ip), vehicle: carboxymethylcellulose (CMC)); 91 % of control (dose: 400.0 mg/kg/injection, schedule: Q01DX001 (ip), vehicle: carboxymethylcellulose (CMC)).

In the case of `C=CCc1cn(C2OC(COC(=O)c3ccc(Cl)cc3)C(OC(=O)c3ccc(Cl)cc3)C2O)c(=O)[nH]c1=O` (stereo unspecified), the T/C was 90 % of control (dose: 100.0 mg/kg/injection, schedule: Q01DX005 (ip), vehicle: saline) and 91 % of control (dose: 200.0 mg/kg/injection, schedule: Q01DX005 (ip), vehicle: saline).

For `COc1cc2cccccc-2cc1=O`, the T/C (dose: 50.0 mg/kg/injection, schedule: Q01DX009 (ip), vehicle: other) was 104 % of control; the T/C (dose: 100.0 mg/kg/injection, schedule: Q01DX009 (ip), vehicle: other) is 89 % of control; the T/C under setting [7] is 103 % of control; the T/C (dose: 200.0 mg/kg/injection, schedule: Q01DX009 (ip), vehicle: other) was 101 % of control; the T/C under setting [8] is 97 % of control; the T/C under setting [9] was 103 % of control.

`OCC1OC(Oc2ccccc2)C(O)C(O)C1O` (stereo unspecified): the T/C under setting [1] is 96 % of control, the T/C under setting [2] was 105 % of control and the T/C under setting [3] was 100 % of control.

`CN(C)c1cc2c3ccccc3ccc2c2ccccc12`: the T/C is 100 % of control (dose: 100.0 mg/kg/injection, schedule: Q01DX001 (ip), vehicle: olive oil, sesame oil, peanut oil); 103 % of control (dose: 200.0 mg/kg/injection, schedule: Q01DX001 (ip), vehicle: olive oil, sesame oil, peanut oil); 102 % of control (dose: 400.0 mg/kg/injection, schedule: Q01DX001 (ip), vehicle: olive oil, sesame oil, peanut oil).

On to `CC/C(=C(\c1ccccc1)c1ccc(OCCN(C)C)cc1)c1ccccc1`, for which the T/C runs as follows: (dose: 100.0 mg/kg/injection, schedule: Q04DX002 (ip), vehicle: Klucel (hydroxypropylcellulose) (HPC)) 95 % of control; (dose: 200.0 mg/kg/injection, schedule: Q04DX002 (ip), vehicle: Klucel (hydroxypropylcellulose) (HPC)) 92 % of control; (dose: 400.0 mg/kg/injection, schedule: Q04DX002 (ip), vehicle: Klucel (hydroxypropylcellulose) (HPC)) 100 % of control.

With `CCN(CC)CCOC(=O)Cc1ccccc1`, the T/C (dose: 100.0 mg/kg/injection, schedule: Q01DX009 (ip), vehicle: Klucel (hydroxypropylcellulose) (HPC)) was 94 % of control; the T/C under setting [7] was 97 % of control; the T/C (dose: 200.0 mg/kg/injection, schedule: Q01DX009 (ip), vehicle: Klucel (hydroxypropylcellulose) (HPC)) was 104 % of control; the T/C under setting [8] was 100 % of control; the T/C (dose: 400.0 mg/kg/injection, schedule: Q01DX009 (ip), vehicle: Klucel (hydroxypropylcellulose) (HPC)) is 105 % of control; the T/C under setting [9] was 100 % of control.

With `COc1ccc2c(c1OC)C1C3CC=CC3C2C2=[N+]1CCc1cc3c(cc12)OCO3` (stereo unspecified), the T/C is, setting by setting: (dose: 1.56 mg/kg/injection, schedule: Q01DX009 (ip), vehicle: saline) 102 % of control; (dose: 3.12 mg/kg/injection, schedule: Q01DX009 (ip), vehicle: saline) 93 % of control; (dose: 6.25 mg/kg/injection, schedule: Q01DX009 (ip), vehicle: saline) 98 % of control; (dose: 12.5 mg/kg/injection, schedule: Q01DX009 (ip), vehicle: saline) 113 % of control.

In the case of `Cc1ccc2[nH]c(=S)n(-c3ccccc3)c(=O)c2c1`, the T/C is, setting by setting: (dose: 100.0 mg/kg/injection, schedule: Q04DX002 (ip), vehicle: saline with Tween-80) 91 % of control; (dose: 200.0 mg/kg/injection, schedule: Q04DX002 (ip), vehicle: saline with Tween-80) 91 % of control; (dose: 400.0 mg/kg/injection, schedule: Q04DX002 (ip), vehicle: saline with Tween-80) 91 % of control.
